Laboratory results from ChEMBL document CHEMBL3864160, “Discovery of fluorobenzimidazole HCV NS5A inhibitors” (Bioorg Med Chem Lett, 2016).

Legend:
[1] = Inhibition of Hepatitis C virus genotype 1b Con1 replicon NS5A transfected in human HuH7 cells assessed as decrease in replication of viral replicon after 4 days by luciferase reporter gene assay; type: cell-based, Hepatitis C virus (isolate Con1); conditions: Huh-7, 96 h
[2] = Inhibition of Hepatitis C virus genotype 1b Con1 replicon NS5A transfected in human HuH7 cells assessed as decrease in replication of viral replicon in presence of 40% human plasma after 4 days by luciferase reporter gene assay; type: cell-based, Hepatitis C virus (isolate Con1); conditions: Huh-7, Plasma, 96 h
[3] = Inhibition of Hepatitis C virus genotype 1a H77 replicon NS5A Q30R mutant transfected in human HuH7 cells assessed as decrease in replication of viral replicon after 4 days by luciferase reporter gene assay; type: cell-based, Hepatitis C virus (isolate H77); conditions: Huh-7, 96 h
[4] = Inhibition of Hepatitis C virus genotype 1a H77 replicon NS5A transfected in human HuH7 cells assessed as decrease in replication of viral replicon in presence of 40% human plasma after 4 days by luciferase reporter gene assay; type: cell-based, Hepatitis C virus (isolate H77); conditions: Huh-7, Plasma, 96 h
[5] = Half life in CD1 mouse at 15 mg/kg, po after 0.25 to 24 hrs; type: ADME, organism-based; conditions: in vivo
[6] = Inhibition of Hepatitis C virus genotype 1a H77 replicon NS5A transfected in human HuH7 cells assessed as decrease in replication of viral replicon after 4 days by luciferase reporter gene assay; type: cell-based, Hepatitis C virus (isolate H77); conditions: Huh-7, 96 h
[7] = Half life in beagle dog at 2.5 mg/kg, po administered via gavage after 0.25 to 24 hrs; type: ADME, organism-based, Canis lupus familiaris; conditions: in vivo
[8] = Inhibition of Hepatitis C virus genotype 3a replicon NS5A transfected in human HuH7 cells assessed as decrease in replication of viral replicon after 4 days by luciferase reporter gene assay; type: cell-based, Hepatitis C virus subtype 3a; conditions: Huh-7, 96 h
[9] = AUC in beagle dog at 2.5 mg/kg, po administered via gavage after 0.25 to 24 hrs; type: ADME, organism-based, Canis lupus familiaris; design: dose 2.5 mg/kg, time 0.25-24 hr, route oral; conditions: in vivo
[10] = Cmax in CD1 mouse at 15 mg/kg, po after 0.25 to 24 hrs; type: ADME, organism-based; design: dose 15 mg/kg, route oral; conditions: in vivo
[11] = tested on: Hepatitis C virus (isolate H77); test: Resistance ratio of EC50 for Hepatitis C virus genotype 1a H77 replicon NS5A Y93C mutant to EC50 for Hepatitis C virus genotype 1a H77 replicon NS5A
[12] = tested on: Hepatitis C virus (isolate H77); test: Resistance ratio of EC50 for Hepatitis C virus genotype 1a H77 replicon NS5A Y93H mutant to EC50 for Hepatitis C virus genotype 1a H77 replicon NS5A
[13] = Inhibition of Hepatitis C virus genotype 4a replicon NS5A transfected in human HuH7 cells assessed as decrease in replication of viral replicon after 4 days by luciferase reporter gene assay; type: cell-based, Hepatitis C virus subtype 4a; conditions: Huh-7, 96 h
[14] = AUC in CD1 mouse at 15 mg/kg, po after 0.25 to 24 hrs; type: ADME, organism-based; design: time lower 0.25 hr, dose 15 mg/kg, time upper 24 hr, route oral; conditions: in vivo
[15] = AUC in CD1 mouse at 3 mg/kg, po after 0.25 to 24 hrs; type: ADME, organism-based; design: time upper 24 hr, dose 3 mg/kg, time lower 0.25 hr, route oral; conditions: in vivo
[16] = Half life in CD1 mouse at 3 mg/kg, po after 0.25 to 24 hrs; type: ADME, organism-based; conditions: in vivo
[17] = Inhibition of Hepatitis C virus genotype 2b replicon NS5A transfected in human HuH7 cells assessed as decrease in replication of viral replicon after 4 days by luciferase reporter gene assay; type: cell-based, Hepatitis C virus subtype 2b; conditions: Huh-7, 96 h
[18] = Cmax in beagle dog at 2.5 mg/kg, po administered via gavage after 0.25 to 24 hrs; type: ADME, organism-based, Canis lupus familiaris; design: dose 2.5 mg/kg, route oral; conditions: in vivo
[19] = AUC in Sprague-Dawley rat at 3 mg/kg, po administered via gavage after 0.25 to 24 hrs; type: ADME, organism-based; design: time upper 24 hr, dose 3 mg/kg, time lower 0.25 hr, route oral; conditions: in vivo
[20] = Cmax in Sprague-Dawley rat at 3 mg/kg, po administered via gavage after 0.25 to 24 hrs; type: ADME, organism-based; design: dose 3 mg/kg, route oral; conditions: in vivo
[21] = Inhibition of Hepatitis C virus genotype 1a H77 replicon NS5A M28T mutant transfected in human HuH7 cells assessed as decrease in replication of viral replicon after 4 days by luciferase reporter gene assay; type: cell-based, Hepatitis C virus (isolate H77); conditions: Huh-7, 96 h
[22] = Inhibition of Hepatitis C virus genotype 6a replicon NS5A transfected in human HuH7 cells assessed as decrease in replication of viral replicon after 4 days by luciferase reporter gene assay; type: cell-based, Hepatitis C virus subtype 6a; conditions: Huh-7, 96 h
[23] = tested on: Hepatitis C virus (isolate H77); test: Resistance ratio of EC50 for Hepatitis C virus genotype 1a H77 replicon NS5A M28T mutant to EC50 for Hepatitis C virus genotype 1a H77 replicon NS5A
[24] = Inhibition of Hepatitis C virus genotype 2a replicon NS5A transfected in human HuH7 cells assessed as decrease in replication of viral replicon after 4 days by luciferase reporter gene assay; type: cell-based, Hepatitis C virus subtype 2a; conditions: Huh-7, 96 h
[25] = Cmax in CD1 mouse at 3 mg/kg, po after 0.25 to 24 hrs; type: ADME, organism-based; design: dose 3 mg/kg, route oral; conditions: in vivo
[26] = tested on: Hepatitis C virus (isolate H77); test: Resistance ratio of EC50 for Hepatitis C virus genotype 1a H77 replicon NS5A Q30R mutant to EC50 for Hepatitis C virus genotype 1a H77 replicon NS5A
[27] = AUC in CD1 mouse at 30 mg/kg, po after 0.25 to 24 hrs; type: ADME, organism-based; design: time lower 0.25 hr, dose 30 mg/kg, time upper 24 hr, route oral; conditions: in vivo
[28] = Half life in CD1 mouse at 30 mg/kg, po after 0.25 to 24 hrs; type: ADME, organism-based; conditions: in vivo
[29] = Half life in Sprague-Dawley rat at 3 mg/kg, po administered via gavage after 0.25 to 24 hrs; type: ADME, organism-based; conditions: in vivo
[30] = Cmax in CD1 mouse at 30 mg/kg, po after 0.25 to 24 hrs; type: ADME, organism-based; design: dose 30 mg/kg, route oral; conditions: in vivo
[31] = Plasma clearance in CD1 mouse at 3 mg/kg, iv after 0.1 to 24 hrs; type: ADME, organism-based
[32] = Half life in CD1 mouse at 3 mg/kg, iv after 0.1 to 24 hrs; type: ADME, organism-based; conditions: in vivo
[33] = Oral bioavailability in CD1 mouse at 3 mg/kg after 0.25 to 24 hrs; type: ADME, organism-based; conditions: in vivo
[34] = tested on: Hepatitis C virus (isolate H77); test: Ratio of EC50 for Hepatitis C virus genotype 1a H77 replicon NS5A in presence of 40% human plasma to EC50 for Hepatitis C virus genotype 1a H77 replicon NS5A in absence of 40% human plasma
[35] = tested on: Hepatitis C virus (isolate Con1); test: Ratio of EC50 for Hepatitis C virus genotype 1b Con1 replicon NS5A in presence of 40% human plasma to EC50 for Hepatitis C virus genotype 1b Con1 replicon NS5A in absence of 40% human plasma

| SMILES | EC50 [1] [pM] | EC50 [2] [nM] | EC50 [3] [pM] | EC50 [4] [nM] | EC50 [6] [pM] | EC50 [8] [nM] | Ratio EC50 [11] | Ratio EC50 [12] | EC50 [13] [pM] | AUC [15] [ng·h/mL] | half-life [16] [min] | EC50 [17] [pM] | EC50 [22] [nM] | Ratio EC50 [23] | EC50 [24] [nM] | Cmax [25] [ng/mL] | Ratio EC50 [26] | other results |
| --- | --- | --- | --- | --- | --- | --- | --- | --- | --- | --- | --- | --- | --- | --- | --- | --- | --- | --- |
| COC(=O)N[C@H](C(=O)N1CCC[C@H]1c1nc2cc([C@H]3CC[C@H](c4ccc5[nH]c([C@@H]6CCCN6C(=O)[C@@H](NC(=O)OC)C(C)C)nc5c4)N3c3cc(F)c(N4CCCCC4)c(F)c3)ccc2[nH]1)C(C)C | 6 | 0.261 | 25 | 0.154 | 3 to 6 | 0.009 | 6 | 163 | 5 | 1800 | 234 | 7 | 0.007 | 3 | 0.013 | 220 | 8 | half-life [5]: 192 min; half-life [7]: 168 min; AUC [9]: 1230 ng·h/mL; Cmax [10]: 930 ng/mL; AUC [14]: 9250 ng·h/mL; Cmax [18]: 200 ng/mL; AUC [19]: 30 ng·h/mL; Cmax [20]: 50 ng/mL; EC50 [21]: 10 pM |
| COC(=O)N[C@H](C(=O)N1CCC[C@H]1c1nc2cc([C@H]3CC[C@H](c4cc5[nH]c([C@@H]6CCCN6C(=O)[C@@H](NC(=O)OC)C(C)C)nc5cc4F)N3c3ccc(C(C)(C)C)cc3)c(F)cc2[nH]1)C(C)C |  |  |  |  |  |  |  |  |  | 5790 | 264 |  |  |  |  | 630 |  | half-life [5]: 288 min; Cmax [10]: 3180 ng/mL; AUC [14]: 36200 ng·h/mL |
| COC(=O)N[C@H](C(=O)N1CCC[C@H]1c1nc2c(Cl)c([C@H]3CC[C@H](c4ccc5[nH]c([C@@H]6CCCN6C(=O)[C@@H](NC(=O)OC)C(C)C)nc5c4Cl)N3c3ccc(C(C)(C)C)cc3)ccc2[nH]1)C(C)C | 13 | 0.731 |  | 1.85 | 34 | 0.037 |  |  | 10 |  |  | 38 | 0.59 |  | 1.83 |  |  |  |
| COC(=O)N[C@H](C(=O)N1CCC[C@H]1c1nc2c(C)c([C@H]3CC[C@H](c4ccc5[nH]c([C@@H]6CCCN6C(=O)[C@@H](NC(=O)OC)C(C)C)nc5c4C)N3c3ccc(C(C)(C)C)cc3)ccc2[nH]1)C(C)C | 10 | 0.557 |  | 0.52 | 10 | 0.02 |  |  | 5 |  |  | 25 | 0.132 |  | 0.594 |  |  |  |
| COC(=O)N[C@H](C(=O)N1CCC[C@H]1c1nc2cc([C@H]3CC[C@H](c4cc5nc([C@@H]6CCCN6C(=O)[C@@H](NC(=O)OC)C(C)C)[nH]c5cc4F)N3c3cc(F)c(N4CCCCC4)c(F)c3)c(F)cc2[nH]1)C(C)C | 7 | 0.153 | 8 | 0.096 | 3 to 4 | 0.006 | 4 | 27 | 7 | 4410 | 366 | 4 | 0.007 | 2 | 0.012 | 370 | 3 | AUC [27]: 48200 ng·h/mL; half-life [7]: 330 min; AUC [9]: 17200 ng·h/mL; half-life [28]: 330 min; Cmax [18]: 1380 ng/mL; AUC [19]: 2880 ng·h/mL; Cmax [20]: 190 ng/mL; half-life [29]: 348 min; Cmax [30]: 3390 ng/mL |
| COC(=O)N[C@H](C(=O)N1CCC[C@H]1c1nc2c(F)c([C@H]3CC[C@H](c4ccc5[nH]c([C@@H]6CCCN6C(=O)[C@@H](NC(=O)OC)C(C)C)nc5c4F)N3c3ccc(C(C)(C)C)cc3)ccc2[nH]1)C(C)C | 10 | 0.211 |  | 0.823 | 22 | 0.02 |  |  | 7 |  |  | 9 | 0.114 |  | 0.612 |  |  |  |
| COC(=O)N[C@H](C(=O)N1CCC[C@H]1C(=O)Nc1ccc([C@H]2CC[C@@H](c3ccc(NC(=O)[C@@H]4CCCN4C(=O)[C@@H](NC(=O)OC)C(C)C)cc3)N2c2ccc(C(C)(C)C)cc2)cc1)C(C)C |  |  |  |  |  |  |  |  |  | 11000 |  |  |  |  |  | 570 |  | clearance [31]: 1.83 mL/min/kg; half-life [32]: 660 min; bioavailability [33]: 42% |
| COC(=O)N[C@H](C(=O)N1CCC[C@H]1c1nc2cc([C@H]3CC[C@H](c4cc5nc([C@@H]6CCCN6C(=O)[C@@H](NC(=O)OC)C(C)C)[nH]c5cc4F)N3c3ccc(C(C)(C)C)cc3)c(F)cc2[nH]1)C(C)C | 7 | 0.096 | 5 | 0.216 | 2 to 8 | 0.008 | 3 | 30 | 8 |  |  | 9 | 0.015 | 2 | 0.098 |  | 3 | EC50 [21]: 4 pM; Ratio EC50 [34]: 15 to 30; Ratio EC50 [35]: 15 to 30 |
